In patent publication US20210403858A1, “Bacillus strain and microbial preparation of bacillus and method of using microbial preparation” (ROLLING GREENS CO., LTD., priority 2020, published 2021):

Assays:
[1] = test system: rice seedlings; assay: IAA sensitivity test on rice seedlings; format: in vivo; conditions: 4 days
Method: Taking rice and lettuce for example, IAA sensitivity of the microbial preparation is tested in steps of: disinfecting and germinating rice seedlings; putting the rice seedlings in a sterilized Petri dish in which a filter paper is disposed; […]; moving the sterilized Petri dish into a plant growth box for 4 days; measuring an average height of buds of the rice seedlings and an average height of roots of the rice seedlings;

[2] = test system: lettuce; assay: IAA sensitivity test on lettuce; format: in vivo
Method: disinfecting seeds of the lettuce with 5% sodium hypochlorite and putting the seeds of the lettuce in another sterilized Petri dish in which a filter paper is disposed; adding 3 mL of 0.03 μM, 3 μM, 30 μM, and 300 μM of IAA aqueous solutions respectively; moving another sterilized Petri dish into another plant growth box for 3 days; and measuring a germination rate and a height of each lettuce and a length of a root of each lettuce.

O=C(O)Cc1c[nH]c2ccccc12 [IAA]
growth of the roots of the rice seedlings ([1]; IAA 0.03 μM to 30 μM, FIG. 1): does not promote a growth of the roots | growth of the roots of the rice seedlings ([1]; IAA 300 μM): limited | height of lettuce sprouts ([2]; IAA 0.03 μM, 3 days (no IAA: 5.3 mm)): 3.5 mm | length of lettuce roots ([2]; IAA 0.03 μM, 3 days (no IAA: 14.8 mm)): 8.8 mm | germination rate of the seeds of the lettuce ([2]; IAA 300 μM, 3 days (no IAA: 78%)): 13%
